Source: publication PMC4042406 (British journal of haematology, 2011)
pEC50: −log10 of the molar value. Several values for one entry are separate records, joined by “and”; a condition that tells them apart may be missing. Equal values may be shown once.

What was measured:
MM.1S cells [1] = assay: Immunoblotting analysis of LCQ195-treated cells; type: cell-based, human; settings: 2 μM
CDK2/cyclin E = CDK2/cyclin E (Homo sapiens, UniProt P24941); assay: Millipore KinaseProfilerXL kinase activity, dose titration; type: biochemical; settings: 5-log dose titration 0.001-10μM
panel of MM cell lines = assay: MTT colorimetric survival assay, panel of MM cell lines; type: cell-based, human; settings: read-out: EC50 (viability), majority of MM cell lines, 0-4 μM, 48 hrs
Dox40 MM cell line = assay: MTT colorimetric survival assay; type: cell-based, human; settings: read-out: EC50 (viability), Dox40, 0-4 μM, 48 hrs
CDK2/cyclin A [2] = biological target: T1, CDK2/cyclin A (Homo sapiens, UniProt P24941); assay: Millipore KinaseProfilerXL kinase activity, dose titration; type: biochemical; settings: 5-log dose titration 0.001-10μM
U266 MM cell line = assay: MTT colorimetric survival assay; type: cell-based, human; settings: read-out: EC50 (viability), U266, 0-4 μM, 48 hrs
MM.1S cells [3] = assay: Gene expression profiling; type: cell-based, human; settings: 2 μM, 2-24hrs
MM.1S cells [4] = assay: InnoCyte Cytochrome C release assay; type: cell-based, human
MM.1S cells [5] = assay: Drug combination viability; type: cell-based, human; settings: data not shown
CDK5/p35 = CDK5/p35 (Homo sapiens, UniProt Q00535); assay: Invitrogen Z'-LYTE in vitro kinase activity assay; type: biochemical; settings: 500 nM LCQ195, 100 μM ATP, 1% DMSO
XG-1 MM cell line = assay: MTT colorimetric survival assay; type: cell-based, human; settings: read-out: EC50 (viability), XG-1, 0-4 μM, 48 hrs
[6] = test system: Bcl-2 over-expressing MM.1S; assay: Survival of Bcl-2 over-expressing MM.1S vs parental cells; type: cell-based, human; settings: LCQ195 treatment for 48 hrs
CDK2/cyclin A [7] = biological target: T1, CDK2/cyclin A; assay: Invitrogen Z'-LYTE in vitro kinase activity assay; type: biochemical; settings: 500 nM LCQ195, 100 μM ATP, 1% DMSO
CDK1/cyclin B = CDK1/cyclin B (Homo sapiens, UniProt P06493); assay: Invitrogen Z'-LYTE in vitro kinase activity assay; type: biochemical; settings: 500 nM LCQ195, 100 μM ATP, 1% DMSO
MM.1S cells [8] = assay: Flow cytometric cell cycle analysis; type: cell-based, human; settings: 2 μM for up to 48 hours
CLK3 = CLK3 (Homo sapiens, UniProt P49761); assay: Invitrogen Z'-LYTE in vitro kinase activity assay; type: biochemical; settings: 500 nM LCQ195, 100 μM ATP, 1% DMSO
OPM2 MM cell line = assay: MTT colorimetric survival assay; type: cell-based, human; settings: read-out: EC50 (viability), OPM2, 0-4 μM, 48 hrs
Delta 47 MM cell line = assay: MTT colorimetric survival assay; type: cell-based, human; settings: read-out: EC50 (viability), Delta 47, 0-4 μM, 48 hrs
KMS-12-BM MM cell line = assay: MTT colorimetric survival assay; type: cell-based, human; settings: read-out: EC50 (viability), 0-4 μM, 48 hrs
[9] = test system: immortalized hepatocyte cell line THLE-3; assay: MTT viability of immortalized hepatocytes; type: cell-based; settings: read-out: calculated EC50 (viability); immortalized hepatocytes THLE-3
NOP2 MM cell line = assay: MTT colorimetric survival assay; type: cell-based, human; settings: read-out: EC50 (viability), NOP2, 0-4 μM, 48 hrs
PBMCs = assay: MTT viability of PBMCs from healthy donors; type: cell-based, human; settings: LCQ195 up to 8 μM for 48 hrs
CHEK2 (CHK2) = CHEK2 (CHK2) (Homo sapiens, UniProt O96017); assay: Invitrogen Z'-LYTE in vitro kinase activity assay; type: biochemical; settings: 500 nM LCQ195, 100 μM ATP, 1% DMSO
[10] = test system: CD138+ selected primary MM cells; assay: CellTiterGlo viability of purified primary tumor cells from MM patients; type: cell-based, human; settings: increasing doses, 48 hrs
CDK5/p25 = CDK5/p25 (Homo sapiens, UniProt Q00535); assay: Invitrogen Z'-LYTE in vitro kinase activity assay; type: biochemical; settings: 500 nM LCQ195, 100 μM ATP, 1% DMSO
MM.1S cells [11] = assay: Annexin V / PI flow cytometric analysis of apoptosis; type: cell-based, human; settings: 2 μM, 4-48 hrs
MM.1S cells [12] = assay: Immunoblotting, comparison of LCQ195, flavopiridol and Taxol; settings: equipotent doses: LCQ195 1 μM, flavopiridol 50 nM; 4-24 hrs
HS-5 BMSCs = assay: MTT viability of non-malignant stromal cells; type: cell-based, human; settings: read-out: calculated EC50 (viability); non-malignant HS-5 BMSCs
S6B45 MM cell line = assay: MTT colorimetric survival assay; type: cell-based, human; settings: read-out: EC50 (viability), S6B45, 0-4 μM, 48 hrs

Sequence of CDK1/cyclin B (P06493 whole entry): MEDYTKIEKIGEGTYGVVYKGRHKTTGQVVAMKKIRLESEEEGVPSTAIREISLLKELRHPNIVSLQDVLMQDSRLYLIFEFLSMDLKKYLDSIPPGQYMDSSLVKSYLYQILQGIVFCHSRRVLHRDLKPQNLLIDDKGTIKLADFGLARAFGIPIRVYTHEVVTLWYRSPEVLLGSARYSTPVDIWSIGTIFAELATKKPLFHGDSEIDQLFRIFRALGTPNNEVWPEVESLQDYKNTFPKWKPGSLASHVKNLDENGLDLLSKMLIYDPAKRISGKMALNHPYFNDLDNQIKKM
Sequence of CHEK2 (CHK2) (O96017 whole entry): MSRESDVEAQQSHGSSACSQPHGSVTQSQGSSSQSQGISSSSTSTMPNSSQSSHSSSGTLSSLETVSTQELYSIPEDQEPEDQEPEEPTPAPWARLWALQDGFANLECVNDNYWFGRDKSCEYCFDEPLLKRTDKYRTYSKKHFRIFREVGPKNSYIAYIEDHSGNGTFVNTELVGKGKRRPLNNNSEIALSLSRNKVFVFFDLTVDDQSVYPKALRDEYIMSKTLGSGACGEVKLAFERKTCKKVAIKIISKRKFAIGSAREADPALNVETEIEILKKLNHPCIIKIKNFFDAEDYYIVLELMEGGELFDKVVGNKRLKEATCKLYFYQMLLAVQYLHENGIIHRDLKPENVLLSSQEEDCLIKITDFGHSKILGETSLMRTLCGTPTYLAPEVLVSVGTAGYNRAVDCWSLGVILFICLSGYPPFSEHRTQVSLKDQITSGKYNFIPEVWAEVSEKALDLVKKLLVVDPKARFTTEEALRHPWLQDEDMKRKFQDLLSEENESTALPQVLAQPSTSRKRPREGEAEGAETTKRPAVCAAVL
Sequence of CLK3 (P49761 whole entry): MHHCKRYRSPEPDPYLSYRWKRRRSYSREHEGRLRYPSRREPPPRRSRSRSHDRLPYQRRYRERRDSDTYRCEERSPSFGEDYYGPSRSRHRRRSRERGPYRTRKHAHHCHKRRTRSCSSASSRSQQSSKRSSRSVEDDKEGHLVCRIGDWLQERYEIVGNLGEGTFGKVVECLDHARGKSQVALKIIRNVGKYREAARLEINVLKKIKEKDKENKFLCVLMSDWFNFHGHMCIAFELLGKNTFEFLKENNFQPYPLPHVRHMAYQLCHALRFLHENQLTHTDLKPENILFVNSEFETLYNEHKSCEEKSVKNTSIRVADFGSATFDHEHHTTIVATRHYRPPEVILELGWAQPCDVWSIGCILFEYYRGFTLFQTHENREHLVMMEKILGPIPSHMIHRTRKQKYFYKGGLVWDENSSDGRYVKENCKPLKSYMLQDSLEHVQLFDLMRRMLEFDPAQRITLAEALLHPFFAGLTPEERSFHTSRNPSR
Sequence of CDK5/p25 (Q00535 whole entry): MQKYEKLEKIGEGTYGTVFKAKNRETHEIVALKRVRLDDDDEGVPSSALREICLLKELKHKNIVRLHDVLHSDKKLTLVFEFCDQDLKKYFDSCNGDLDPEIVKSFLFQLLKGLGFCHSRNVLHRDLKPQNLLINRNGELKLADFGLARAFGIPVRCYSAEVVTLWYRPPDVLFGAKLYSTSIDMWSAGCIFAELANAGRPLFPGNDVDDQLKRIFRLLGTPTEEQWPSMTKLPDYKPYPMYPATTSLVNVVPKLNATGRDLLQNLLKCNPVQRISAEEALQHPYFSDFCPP
Sequence of CDK5/p35 (Q00535 whole entry): as above

CS(=O)(=O)N1CCC(NC(=O)c2[nH]ncc2NC(=O)c2c(Cl)cccc2Cl)CC1 [LCQ195]
caspase 8, caspase 3 and PARP cleavage (immunoblotting) (MM.1S cells [1]; 0-24 hrs): cleavage as early as 16 hrs | caspase 9 cleavage (immunoblotting) (MM.1S cells [1]; 0-24 hrs): no cleavage of caspase 9 | Rb phosphorylation (immunoblotting) (MM.1S cells [1]; as early as 2 hours): pronounced decrease | in vitro kinase activity in dose titration (CDK2/cyclin E): active at sub-μM concentrations | pEC50 (panel of MM cell lines): ~6.00 and ≥ 6.00 | pEC50 (Dox40 MM cell line): < 5.40 | in vitro kinase activity in dose titration (CDK2/cyclin A [2]): active at sub-μM concentrations | pEC50 (U266 MM cell line): > 6.00 | expression of transcription factors myc, IRF4 and XBP-1 (transcripts) (MM.1S cells [3]): suppressed | cytochrome c release (MM.1S cells [4]; 2 μM LCQ195 for 4-24hrs): no changes | combination with bortezomib (MM.1S cells [5]): no synergy | combination with doxorubicin (MM.1S cells [5]): no synergy | inhibition of kinase activity (CDK5/p35): potent inhibition | pEC50 (XG-1 MM cell line): < 5.40 | effect of bcl-2 overexpression on cell survival after treatment [6]: minimal effect on cell survival | inhibition of kinase activity (CDK2/cyclin A [7]): potent inhibition | inhibition of kinase activity (CDK1/cyclin B): potent inhibition | cell cycle profile (MM.1S cells [8]): increased the percentage of cells in S and G2/M phases early, followed by an increase in sub-G1 population | inhibition of kinase activity (CLK3): partial inhibition | pEC50 (OPM2 MM cell line): > 6.00 | pEC50 (Delta 47 MM cell line): > 6.00 | pEC50 (KMS-12-BM MM cell line): > 6.00 | pEC50 [9]: < 5.40 | pEC50 (NOP2 MM cell line): < 5.40 | percentage of viable PBMCs (PBMCs): ≥ 50% | inhibition of kinase activity (CHEK2 (CHK2)): partial inhibition | response of purified primary tumor cells (viability) [10]: responded | inhibition of kinase activity (CDK5/p25): potent inhibition | apoptosis (Annexin V / PI staining) (MM.1S cells [11]): induces apoptosis | p107 levels (immunoblotting) (MM.1S cells [12]): decreased | pEC50 (HS-5 BMSCs): < 5.40 | pEC50 (S6B45 MM cell line): > 6.00

CN1CC[C@H](c2c(O)cc(O)c3c(=O)cc(-c4ccccc4Cl)oc23)[C@H](O)C1 [flavopiridol, reference compound]
p107 levels (immunoblotting) (MM.1S cells [12]): stable

CC(C)C[C@H](NC(=O)[C@H](Cc1ccccc1)NC(=O)c1cnccn1)B(O)O [PS-341, reference compound]
cytochrome c release (MM.1S cells [4]; positive control, 50 nM for 12 hrs): significant release of cytochrome C
